This note sets out measurements from US9247741B2, “Use of macrocyclic picolinamides as fungicides” (DOW AGROSCIENCES LLC, priority 2013, dated 2016).

What all share (format): in vivo
In assay [1] the test system is Glomerella lagenarium; Anamorph: Colletotrichum lagenarium. The assay is described as follows: Cucumber anthracnose (COLLLA) disease control. Particulars: Colletotrichum orbiculare, 24 h, 1 Day Protectant, read-out: COLLLA disease control rating. As for the experimental part:
Technical grades of materials were dissolved in acetone, which were then mixed with nine volumes of water containing 110 ppm Triton X-100. The fungicide solutions were applied onto wheat seedlings using an automated booth sprayer to run-off. All sprayed plants were allowed to air dry prior to further handling. All fungicides were evaluated using the aforementioned method for their activity vs. all target diseases. Wheat leaf blotch and brown rust activity were also evaluated using track spray applications, in which case the fungicides were formulated as EC formulations, containing 0.1% Trycol 5941 in the spray solutions. Wheat plants (variety Yuma) were grown from seed in a greenhouse in 50% mineral soil/50% soil-less Metro mix until the first leaf was fully emerged, with 7-10 seedlings per pot. These plants were inoculated with an aqueous spore suspension of Septoria tritici either prior to or after fungicide treatments. After inoculation the plants were kept in 100% relative humidity (one day in a dark dew chamber followed by two to three days in a lighted dew chamber at 20° C.) to permit spores to germinate and infect the leaf. The plants were then transferred to a greenhouse set at 20° C. for disease to develop. When disease symptoms were fully expressed on the l^st leaves of untreated plants, infection levels were assessed on a scale of 0 to 100 percent disease severity. Percent disease control was calculated using the ratio of disease severity on treated plants relative to untreated plants. Evaluation of Fungicidal Activity: Cucumber Anthracnose (Glomerella lagenarium; Anamorph: Colletotrichum lagenarium; Bayer Code COLLLA) Cucumber seedlings (variety Bush Pickle) were propagated in soil-less Metro mix, with each pot having one plant, and used in the test when 12 to 14 days old. Test plants were inoculated with an aqueous spore suspension of Colletotrichum lagenarium 24 hr after fungicide treatments. After inoculation the plants were kept in a dew room at 22° C. with 100% relative humidity for 48 hr to permit spores to germinate and infect the leaf. The plants were then transferred to a growth room set at 22° C. for disease to develop. Fungicide formulation, application and disease assessment on the sprayed leaves followed the procedures as described in the Example A.

For another assay, the system named is Uncinula necator. The assay is described as follows: Grape powdery mildew (UNCINE) disease control. Particulars: Erysiphe necator, 24 h, 1 Day Protectant, read-out: UNCINE disease control rating. The procedure:
Technical grades of materials were dissolved in acetone, which were then mixed with nine volumes of water containing 110 ppm Triton X-100. The fungicide solutions were applied onto wheat seedlings using an automated booth sprayer to run-off. All sprayed plants were allowed to air dry prior to further handling. All fungicides were evaluated using the aforementioned method for their activity vs. all target diseases. Wheat leaf blotch and brown rust activity were also evaluated using track spray applications, in which case the fungicides were formulated as EC formulations, containing 0.1% Trycol 5941 in the spray solutions. Wheat plants (variety Yuma) were grown from seed in a greenhouse in 50% mineral soil/50% soil-less Metro mix until the first leaf was fully emerged, with 7-10 seedlings per pot. These plants were inoculated with an aqueous spore suspension of Septoria tritici either prior to or after fungicide treatments. After inoculation the plants were kept in 100% relative humidity (one day in a dark dew chamber followed by two to three days in a lighted dew chamber at 20° C.) to permit spores to germinate and infect the leaf. The plants were then transferred to a greenhouse set at 20° C. for disease to develop. When disease symptoms were fully expressed on the l^st leaves of untreated plants, infection levels were assessed on a scale of 0 to 100 percent disease severity. Percent disease control was calculated using the ratio of disease severity on treated plants relative to untreated plants. Evaluation of Fungicidal Activity: Grape Powdery Mildew (Uncinula necator; Bayer Code […]) Grape seedlings (variety Carignane) were grown in soil-less Metro mix, with one plant per pot, and used in the test when approximately one month old. Plants were inoculated 24 hr after fungicide treatment by shaking spores from infected leaves over test plants. Plants were maintained in a greenhouse set at 20° C. until disease was fully developed. Fungicide formulation, application and disease assessment on the sprayed leaves followed the procedures as described in the Example A.

Assay [2] has as its system Magnaporthe grisea; Anamorph: Pyricularia oryzae. Particulars: 1 Day Protectant, 100 ppm, rice.
For another assay, the system named is Rhyncosporium secalis. Description: Barley scald (RHYNSE) disease control. The settings on record: Hordeum vulgare, 24 h, 1 Day Protectant, read-out: RHYNSE disease control rating. The procedure:
Technical grades of materials were dissolved in acetone, which were then mixed with nine volumes of water containing 110 ppm Triton X-100. The fungicide solutions were applied onto wheat seedlings using an automated booth sprayer to run-off. All sprayed plants were allowed to air dry prior to further handling. All fungicides were evaluated using the aforementioned method for their activity vs. all target diseases. Wheat leaf blotch and brown rust activity were also evaluated using track spray applications, in which case the fungicides were formulated as EC formulations, containing 0.1% Trycol 5941 in the spray solutions. Wheat plants (variety Yuma) were grown from seed in a greenhouse in 50% mineral soil/50% soil-less Metro mix until the first leaf was fully emerged, with 7-10 seedlings per pot. These plants were inoculated with an aqueous spore suspension of Septoria tritici either prior to or after fungicide treatments. After inoculation the plants were kept in 100% relative humidity (one day in a dark dew chamber followed by two to three days in a lighted dew chamber at 20° C.) to permit spores to germinate and infect the leaf. The plants were then transferred to a greenhouse set at 20° C. for disease to develop. When disease symptoms were fully expressed on the l^st leaves of untreated plants, infection levels were assessed on a scale of 0 to 100 percent disease severity. Percent disease control was calculated using the ratio of disease severity on treated plants relative to untreated plants. Evaluation of Fungicidal Activity: Barley Scald (Rhyncosporium secalis; Bayer code […]) Barley seedlings (variety Harrington) were propagated in soil-less Metro mix, with each pot having 8 to 12 plants, and used in the test when first leaf was fully emerged. Test plants were inoculated by an aqueous spore suspension of Rhyncosporium secalis 24 hr after fungicide treatments. After inoculation the plants were kept in a dew room at 20° C. with 100% relative humidity for 48 hr. The plants were then transferred to a greenhouse set at 20° C. for disease to develop. Fungicide formulation, application and disease assessment on the sprayed leaves followed the procedures as described in the Example A.

As for `CCCO[C@H]1CCC[C@H](NC(=O)c2nccc(OC)c2OC(C)=O)C(=O)O[C@@H](C)[C@@H]1CCC(C)C` [Compound 74, 2-(((3S,7S,8S,9S)-8-isopentyl-9-methyl-2-oxo-7-propoxyoxonan-3-yl)carbamoyl)-4-methoxypyridin-3-yl acetate], the pest or weed control at 100 ppm (in assay [1]; in the assay with Uncinula necator; in the assay on Rhyncosporium secalis) was > 70% each time. Besides, the “PYRIOR disease control rating” value in assay [2] is given as “A (>70)”.

In the case of `COc1ccnc(C(=O)N[C@H]2CCC[C@H](Oc3ccccc3)[C@@H](CCC(C)C)[C@H](C)OC2=O)c1OC(C)=O` [Compound 36], the pest or weed control at 100 ppm (in assay [1]; in the assay with Uncinula necator; in the assay with Rhyncosporium secalis) was > 70% throughout.

`CCCO[C@H]1CCC[C@H](NC(=O)c2nccc(OC)c2OC(C)=O)C(=O)O[C@@H](C)[C@@H]1Cc1ccccc1` [Compound 70]: the pest or weed control at 100 ppm (in assay [1]; in the assay on Uncinula necator; in the assay on Rhyncosporium secalis) was > 70% in each case. The “PYRIOR disease control rating” value in assay [2] is recorded as “A (>70)”.

For `CCCC[C@H]1[C@H](C)OC(=O)[C@@H](NC(=O)c2nccc(OC)c2OCOC(C)=O)CCC[C@@H]1OCC1CC1` [Compound 73], the pest or weed control at 100 ppm (in assay [1]; with Uncinula necator; in the assay with Rhyncosporium secalis) was > 70% each time. Moreover, in assay [2], the “PYRIOR disease control rating” value is “A (>70)”.

As for `CCCC[C@H]1[C@H](C)OC(=O)[C@@H](NC(=O)c2nccc(OC)c2OCOC(C)=O)CCC[C@@H]1Oc1ccccc1` [Compound 33], the pest or weed control at 100 ppm (in assay [1]; with Uncinula necator; in the assay with Rhyncosporium secalis) was > 70% each time. Also, the “PYRIOR disease control rating” value in assay [2] is on record as “A (>70)”.

Regarding `CCCO[C@H]1CCC[C@H](NC(=O)c2nccc(OC)c2OCOC(C)=O)C(=O)O[C@@H](C)[C@@H]1CCC(C)C` [Compound 25, ((2-(((3S,7S,8S,9S)-8-isopentyl-9-methyl-2-oxo-7-propoxyoxonan-3-yl)carbamoyl)-4-methoxypyridin-3-yl)oxy)methyl acetate], the pest or weed control at 100 ppm (in assay [1]; with Uncinula necator; in the assay with Rhyncosporium secalis) was > 70% in each case.

For the molecule `COc1ccnc(C(=O)N[C@H]2CCC[C@H](Oc3ccccc3)[C@@H](CCC(C)C)[C@H](C)OC2=O)c1OCOC(C)=O` [Compound 40], the pest or weed control at 100 ppm (in assay [1]; in the assay with Uncinula necator; with Rhyncosporium secalis) was > 70% in each case. Also, the “PYRIOR disease control rating” value in assay [2] is recorded as “A (>70)”.

Consider `COc1ccnc(C(=O)N[C@H]2CCC[C@H](OCC3CC3)[C@@H](Cc3ccc(F)cc3)[C@H](C)OC2=O)c1OCOC(C)=O` [Compound 61], for which the pest or weed control at 100 ppm (in assay [1]; with Uncinula necator; in the assay with Rhyncosporium secalis) was > 70% in each case. Moreover, the “PYRIOR disease control rating” value in assay [2] was “A (>70)”.
